Earlier results in patent US20020192671A1, “Method and system for predicting the biological activity, including toxicology and toxicity, of substances” (priority 2001, published 2002).

How the values were obtained:
[1] = tested on: rodents
[2] = tested on: cytochrome P450 4A
[3] = tested on: P450 4F

| SMILES | toxic effect at high non-therapeutic doses | effect of chronic treatment in rodents [1] | effect on cytochrome P450 4A levels [2] | effect on P450 4F levels [3] |
| --- | --- | --- | --- | --- |
| CC(=O)Nc1ccc(O)cc1 [APAP, acetaminophen] | hepatic and renal failure | – | – | – |
| CCOC(=O)C(C)(C)Oc1ccc(Cl)cc1 [Clofibrate] | – | hepatomegaly, an increase in hepatic peroxisomes | increase levels of cytochrome P450 4A | reduce the levels of P450 4F |
